From patent US20250228853A1, “Apoptosis Inhibitors” (Queen's University at Kingston, priority 2024, published 2025)
Entries after “also recorded” stand apart in the source; their conditions may differ.

What was measured:
[1] = test system: BEAS-2B cells infected with HCoV-OC43; assay: apoptosis by TUNEL staining in HCoV-OC43 infected BEAS-2B cells; assay type: cell-based, human; conditions: for apoptosis (TUNEL positive cells): BEAS-2B, 48 h treatment from 24 h post infection, FIG. 1B; for effectiveness in the in vitro screening to confirm biological activity: in vitro screening as described in the patent
Protocol: (§1) Cell Culture: BEAS-2B cells (an epithelial cell line that was isolated from normal human bronchial epithelium) were purchased from the American Type Culture Collection (ATCC) through Cedarlane Corp., Burlington, Canada. The cells were cultured in bronchial epithelial cell growth medium (Lonza/Clonetics Corporation, Basel, Switzerland) supplemented with 10% fetal bovine serum (FBS). Cells were cultured at 37° C. in a humidified incubator balanced with 5% CO2.
(§2) Compound solution preparation for in vitro experiments: Candidate compounds were dissolved in anhydrous Dimethyl Sulfoxide (DMSO) (available from Sigma Aldrich), filtered by a 0.20 μm PTFE filter and added to culture medium to make a working solution at designated concentrations. Final concentration of DMSO in culture medium was ≤0.1%. Same volume of DMSO was used as control.
(§3) An apoptosis study was conducted (see FIGS. 1A-1C). HCoV-OC43 infection (referred to as “OC43” herein) see Archer, S. L., et al., Redox Biology ([…]) 58:102508) was performed in BEAS-2B cells (an epithelial cell line that was isolated from normal human bronchial epithelium, available from ATCC through Cedarlane Corp., Burlington, Canada). Cells were counted and then seeded in a cell culture plate overnight. The cell culture media was replaced with serum-free media containing 3 focus-forming units (ffu)/cell of OC43 virus. The cells were cultured in this inoculum for 2 hours. Then the inoculum was replaced with complete growth medium and incubated at 33° C. until 72 hours post-infection (the time of the experimental endpoint). Cells were then treated for 48 hours with AIF Inhibitor compounds starting at 24 hours post infection. Concentration of compounds: AIF inhibitor 1, AIF inhibitor 3, and AIF inhibitor 6 were used at a concentration of 10 uM; Drpitor1a, which is a Drp1 inhibitor and is not an AIF inhibitor) was used at a concentration of 1 uM. Cell viability was measured by cell count (see FIG. 1A). Apoptotic cells were measured by TUNEL staining (see FIG. 1B) (see Archer, S. L., et al., Redox Biol. (2022) 58:102508). Cells were dual stained with Click-iT® Plus TUNEL (available from Thermo Fisher, Waltham, MA, USA) and 4′,6-diamidino-2-phenylindole (DAPI) (available from Thermo Fisher, Waltham, MA, USA). Images were captured on a Leica SP8 confocal microscope using a 63×1.4 NA objective and a white light laser at 488 nm. Emission acquisition gating was 510-530 nm (for TUNEL). A 405 nm laser diode was used for DAPI excitation and the emission acquisition gate was set at 420-480 nm. Viral loads were quantified using qRT-PCR (see FIG. 1C). mRNA level of HCoV-OC43 N protein was measured and compared among treatment groups.

HCoV-OC43 = assay: viral load by qRT-PCR of HCoV-OC43 N protein mRNA in BEAS-2B cells; assay type: cell-based, Human coronavirus OC43; conditions: 48 h treatment from 24 h post infection, FIG. 1C
Protocol: as §1, §2, §3

[2] = test system: murine hepatitis virus-1 (MHV-1); assay: murine model of MHV-1 pneumonia (lung photographs, micro-CT, hemodynamics); assay type: in vivo; conditions: 1 mg/kg QD IP 5 days
Protocol: Five-week-old A/J mice (Jackson Labs, Bar Harbour, Maine) were given an intranasal inoculation of either MHV-1 (5000 PFU/17 μl) or an identical volume of saline as control. AIF inhibitor 6 was administered for 5 days (1 mg/kg, QD, IP) post infection. At day 5 post-infection, mice were anesthetized with a single IP injection of ketamine/xylazine (150 mg/kg and 10 mg/kg, respectively). O2 saturation was measured while mice breathed room air, following which they were intubated and mechanically ventilated, which increased their O2 saturation. Transcutaneous O2 saturation was monitored during the procedure using a MouseSTAT® Jr. rodent pulse oximeter attached to the rear paw (Kent Scientific Corporation, Torrington, CT, USA). Right heart catheterization (RHC) was performed using a 1.2F Scisense pressure-volume catheter (Transonic Systems Inc., Ithaca, NY, USA) via a closed chest approach. Mice were ventilated with normoxic gas (room air, 20.6% O2) for 10 minutes, followed by hypoxic gas for 10 minutes (10% 02 balanced with N2) and then followed by normoxic gas (room air, 20.6% O2) for 10 minutes. This regimen was designed to elicit hypoxic pulmonary vasoconstriction (HPV), a normal physiologic response of the pulmonary arteries to airway hypoxia.
Referring to FIGS. 2A-2B, photographs and micro-CT images are shown from a study probing the effect of AIF Inhibitors on murine lung that had been exposed to MHV-1. Lungs were fixed with 4% formaldehyde (PFA) and perfused with 25% barium sulfate via the trachea and imaged by microCT. The micro-CT images were acquired using a VECTor4CT pre-clinical scanner (MILabs B.V., Utrecht, Netherlands) equipped with a cone beam X-ray CT system. The measurements used an acceleration voltage of 50 kVp and X-ray tube current of 430 μA in the ultra-focus mode, allowing acquisition of 3,600 projections with exposure time 40 ms, resulting in a 25 μm resolution. Tomographic CT images of FIG. 2B were compiled using MILabs reconstruction software. For quantification and segmentation, CT image data was manually processed using PMOD 3.9 software (PMOD Technologies Ltd., Zurich, Switzerland).

[3] = test system: BEAS-2B cells infected with HCoV-OC43; assay: cell viability by cell count in HCoV-OC43 infected BEAS-2B cells; assay type: cell-based, human; conditions: 1 uM, 48 h treatment from 24 h post infection, endpoint 72 h, FIG. 1A
Protocol: as §1, §2
An apoptosis study was conducted (see FIGS. 1A-1C). […] Cells were counted and then seeded in a cell culture plate overnight. […] Cell viability was measured by cell count (see FIG. 1A). Apoptotic cells were measured by TUNEL staining (see FIG. 1B) (see Archer, S. L., et al., Redox Biol. (2022) 58:102508). […] Viral loads were quantified using qRT-PCR (see FIG. 1C). mRNA level of HCoV-OC43 N protein was measured and compared among treatment groups.

[4] = MHV-1 infected mice, vs vehicle, FIG. 2A

Structure (SMILES) | apoptosis (TUNEL positive cells) ([1]; HCoV-OC43, 10 uM) | effectiveness in the in vitro screening to confirm biological activity [1] | viral load (Relative N expression, Nucleocapsid mRNA) (HCoV-OC43; HCoV-OC43, 10 uM) | lung edema [2, 4] | structural damage of the lungs [2, 4] | lung perfusion (micro-CT, barium contrast) ([2]; MHV-1 infected mice, vs vehicle, FIG. 2B) | hypoxic pulmonary vasoconstriction (rise in RVSP with hypoxia) ([2]; MHV-1 infected mouse, 10% O2 for 10 min, one mouse per group, FIG. 2C) | cell numbers (cell count) after HCoV-OC43 infection [3] | apoptosis (TUNEL positive cells) ([1]; HCoV-OC43, 1 uM) | viral load (Relative N expression, Nucleocapsid mRNA) (HCoV-OC43; HCoV-OC43, 1 uM)
CN1C(CC2=NC(C3CCOCC3)CC(=O)N2)=NCc2ccccc21 (stereo not shown) [Compound 1, 2-[(1-methyl-1,4-dihydroquinazolin-2-yl)methyl)-6-(tetrahydro-2H-pyran-4-yl)-5,6-dihydropyrimidin-4 (3H)-one] | reduced | particularly effective | reduced viral load |  |  |  |  |  |  | 
CCN(CC)C(=O)c1nc2ccccc2cc1C(=O)c1cc(=O)[nH]c2ccccc12 [Compound 3, N,N-diethyl-3-(2-oxo-1,2-dihydroquinoline-4-carbonyl) quinoline-2-carboxamide] | reduced | particularly effective | reduced viral load |  |  |  |  |  |  | 
O=C1c2ccccc2C(=O)N1CCc1c[nH]c2ccc(OCc3ccccc3)cc12 [Compound 6, 2-(2-(5-(benzyloxy)-1H-indol-3-yl)ethyl) isoindoline-1,3-dione] | reduced | particularly effective | lowers the viral titer; also recorded: reduced viral load | reduced lung edema | significantly less structural damage | increased lung perfusion | restored hypoxic pulmonary vasoconstriction |  |  | 
O=C1c2ccncc2C(=O)c2c1[nH]c1ccccc21 [Drpitor1a, reference compound] |  |  |  |  |  |  |  | reversed | reduced | reduced viral load
